# Test results from patent publication US10059712B2, “N-benzyl tryptanthrin derivative, and preparation method and application thereof” (priority 2013, dated 2018).
# Like-named read-outs stand apart in the source and are kept apart here.
# Tests used:
# IDO [1] = biological target: T1, IDO (Homo sapiens, UniProt P14902); experiment: Measurement of median effective inhibition concentration IC50 (IDO enzyme); format: biochemical; parameters: made in house; host or cells: Escherichia coli
# Description: (§1) The IDO inhibitory activity with respect to each compound was detected using the methods described in the literature. 50 mM potassium phosphate buffer (pH 6.5), 40 mM vitamin C, 400 μg/ml catalase, 20 μM methylene blue and IDO enzyme were mixed together in a 96-well plate. The substrate L-tryptophan and the sample to be tested were then added to the aforementioned mixture. The reaction was carried out for 60 minutes at 37° C., after which the reaction was terminated by adding 30% (w/v) trichloroacetic acid. The 96-well plate was heated to 65° C. for 15 minutes to complete the conversion from formylkynurenine to kynurenine, and centrifugation was performed with 6000 g for 5 minutes. 100 μl of supernatant was removed from each well and transferred to a new 96-well plate, after which an acetic acid solution of 2% (w/v) p-(dimethylamino)benzaldehyde was added, and the yellow color produced as a result of the resulting reaction with kynurenine was observable at 490 nm in a microplate reader; the experimental results are shown in Table 1.
# 50 mM potassium phosphate buffer (pH 6.5), 40 mM vitamin C, 400 μg/ml catalase, 20 μM methylene blue, […] of the substrate L-tryptophan and inhibitor were mixed together.
# T lymphocytes = experiment: T-cell proliferation assay (spleen lymphocytes + LLC cells, WST-1); format: cell-based, mice; details: 50 μM IDO inhibitor, 72 hours
# Description: Isolation of Spleen Lymphocytes (Performed in Accordance with the Lymphocyte Separation Medium Instructions):
# 1. Two mice were sacrificed by cervical dislocation and spleens were removed on a sterile table and placed into a 6 cm plate containing an RP1640 culture medium for later use.
# 2. A 100 μm mesh was placed in a 50 mL centrifuge tube and each spleen was cut into smaller pieces using scissors, milled on top of the sieve and a small amount of RP1640 was added for preservation purposes.
# 3. A lymphocyte separation medium equivalent to twice the volume of the resulting slurry was then added.
# 4. Centrifugation was performed at 800 g for 20 minutes, after which three distinct layers were visible, with the middle layer showing a slight yellowish tint.
# 5. Cells in the middle layer were removed and an RP1640 culture medium was added to perform a reverse wash. Cells were then centrifuged at 250 g for 10 minutes at room temperature, and the cells were collected.
# 6. The culture medium was aspirated off and cells were resuspended in the RP1640 medium, after which a cell count was performed.
# LLC (Lewis Lung Carcinoma) Cell Treatment:
# 1. A medium (high glucose DMEM, 10% FBS) was aspirated off and washing was performed 1-2 times using PBS;
# 3. The trypsin was aspirated off and a culture medium was added, after which cells were pipetted off and transferred to a 1.5 mL centrifuge tube;
# 4. Centrifugation followed by aspiration of the supernatant was performed, and cells were resuspended in 1 mL of the DMEM culture medium;
# 5. Mitomycin C (final concentration: 25 μg/mL) was added, the mixture was pipetted up and down until homogeneous, and the mixture was placed in a 37° C. bath for 30 minutes;
# 6. Washing was performed 3 times with RP1640, the cells were counted and the sample was set aside.
# 1. Treated LLC cells (2×10^4 cells/well; stimulator cells) and spleen lymphocytes (10^5 cells/well; reaction cells) were added to a 96-well plate, after which RP1640 (10% FBS was added to bring the volume to 200 μL;
# 3. A WST-1 reagent kit was used to measure T-cell proliferation, and absorbance values at a wavelength of 450 nm were measured using a plate reader;
# 4. […] Experimental Results
# IDO [2] = biological target: T1, IDO; experiment: Determining inhibitor type and Ki value measurement (Dixon plot); format: biochemical; parameters: made in house; host or cells: Escherichia coli
# Description: as §1
# IDO [3] = biological target: T1, IDO; experiment: Measurement of IC50 (cells): HEK 293 cells transfected with pcDNA3.1-hIDO plasmid; format: cell-based; parameters: expressed in transfected cells; host or cells: HEK 293; details: as headed in Table 1, column 3; read-out: IC50 (μM) (Cell)
# Description: The liposome Lipofectamin 2000 was used to transfect HEK 293 cells with the pcDNA3.1-hIDO plasmid. When measuring the inhibition activity at the cellular level, the HEK293 cell culture medium corresponded to high glucose DMEM, containing 50 U/mL penicillin, 50 U/mL streptomycin and 10% FBS, and culturing was performed at 37° C. under 5% CO2.
# Lewis lung carcinoma [4] = test system: Lewis lung carcinoma
# Lewis lung carcinoma [5] = experiment: LLC Lewis tumor model, prophylactic administration; details: for tumor inhibition rate, tumor volume basis / tumor inhibition rate, tumor weight basis: prophylactic administration; for tumor formation, days after the start of administration: prophylactic administration via gavage, test compound: high dosage group
# [6] = 200 mg/kg via gavage, two weeks, post-inoculation
# [7] = high dosage group 150 mg/kg via gavage
# [8] = low dosage group 75 mg/kg via gavage
# T1 sequence (P14902 whole entry): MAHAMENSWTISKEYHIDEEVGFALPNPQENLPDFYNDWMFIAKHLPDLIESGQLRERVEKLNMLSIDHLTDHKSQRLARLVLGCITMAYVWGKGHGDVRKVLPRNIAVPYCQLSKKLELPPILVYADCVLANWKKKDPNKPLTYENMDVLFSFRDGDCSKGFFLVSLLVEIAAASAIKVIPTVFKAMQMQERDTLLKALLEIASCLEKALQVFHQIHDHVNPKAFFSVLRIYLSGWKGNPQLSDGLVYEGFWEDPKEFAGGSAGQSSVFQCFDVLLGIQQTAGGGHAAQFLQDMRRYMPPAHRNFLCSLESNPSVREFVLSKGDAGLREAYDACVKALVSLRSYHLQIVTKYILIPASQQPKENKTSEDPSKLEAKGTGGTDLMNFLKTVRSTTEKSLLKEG
smiles,measurement,setting,value
"Cc1ccc2nc3n(c(=O)c2c1)-c1ccccc1C3=O [Comparative Example, 2-methyl-indole[2,1-b]quinazoline-6,12-dione, reference compound]",IC50,"IDO [1]; method of Embodiment Example 9-11, read-out: IDO inhibitory activity in vitro IC50",997 µM
"CN1CCN(Cc2ccc3nc4n(c(=O)c3c2)-c2ccccc2C4=O)CC1 [Embodiment Example 6, 2-((4-methyl-piperazin-1-yl)methyl)indolo[2,1-b]quinazoline-6,12-dione]",T-Cell Proliferation Rate,T lymphocytes,39.40%
same,Inhibition Type,IDO [2]; Dixon plot (1/v-[I]),Anticompetitive
same,Ki,"IDO [2]; plot of S/v-[I], read-out: Ki (μM) (in vitro)",5.97 µM
same,IC50,"IDO [1]; as headed in Table 1, column 4, read-out: IC50",0.97 µM
same,IC50,IDO [3],2.52 µM
"Cn1cc(C[C@H](N)C(=O)O)c2ccccc21 [1-MT, 1-methyl-tryptophan, reference compound]",in vivo Lewis lung carcinoma tumor growth compared to the control group,Lewis lung carcinoma [4]; [6],significant inhibition
same,"tumor inhibition rate, tumor volume basis",Lewis lung carcinoma [4]; [6],15.68%
same,"tumor inhibition rate, tumor volume basis",Lewis lung carcinoma [5]; [7],32.35%
same,"tumor inhibition rate, tumor weight basis",Lewis lung carcinoma [5]; [7],28.2%
same,"tumor inhibition rate, tumor volume basis",Lewis lung carcinoma [5]; [8],27.00%
same,"tumor formation, days after the start of administration",Lewis lung carcinoma [5],13 days
CC(=O)O[C@H]1C(=O)[C@@]2(C)[C@H]([C@H](OC(=O)c3ccccc3)[C@]3(O)C[C@H](OC(=O)[C@H](O)[C@@H](NC(=O)c4ccccc4)c4ccccc4)C(C)=C1C3(C)C)[C@]1(OC(C)=O)CO[C@@H]1C[C@@H]2O [paclitaxel],"tumor inhibition rate, tumor volume basis","Lewis lung carcinoma [4]; 100 mg/kg intravenous injection once per week, post-inoculation",51.45%
same,toxic side effects observed in mice,"Lewis lung carcinoma [4]; mouse, in vivo","losing weight, losing their fur and showing less movement in general"
CN1CCN(Cc2ccc3nc4n(c(=O)c3c2)-c2ccc(F)cc2C4=O)CC1 [Embodiment Example 4],T-Cell Proliferation Rate,T lymphocytes,41.24%
same,"tumor inhibition rate, tumor volume basis",Lewis lung carcinoma [4]; [6],23.38%
same,"tumor inhibition rate, tumor volume basis",Lewis lung carcinoma [5]; [7],62.15%
same,"tumor inhibition rate, tumor weight basis",Lewis lung carcinoma [5]; [7],57.8%
same,"tumor inhibition rate, tumor volume basis",Lewis lung carcinoma [5]; [8],46.62%
same,"tumor formation, days after the start of administration",Lewis lung carcinoma [5],> 20 days
"CN(C)Cc1ccc2nc3n(c(=O)c2c1)-c1ccc(F)cc1C3=O [Embodiment Example 1, 2-((dimethylamino)methyl)-8-fluoro-indolo[2,1-b]quinazoline-6,12-dione]",T-Cell Proliferation Rate,T lymphocytes,4.88%
"O=C1c2cc(F)ccc2-n2c1nc1ccc(CN3CCNCC3)cc1c2=O [Embodiment Example 3, 8-fluoro-2-(piperazin-1-ylmethyl)indolo[2,1-b]quinazoline-6,12-dione]",T-Cell Proliferation Rate,T lymphocytes,40.64%
"CC(C)(C)OC(=O)N1CCN(Cc2ccc3nc4n(c(=O)c3c2)-c2ccc(F)cc2C4=O)CC1 [Embodiment Example 2, 4-((8-fluoro-6,12-dioxo-6,12-dihydroxy-indolo[2,1-b]quinolin-2-yl)methyl)piperazine-1-carboxylic acid tert-butyl ester]",T-Cell Proliferation Rate,T lymphocytes,38.48%
"O=C1c2cc(F)ccc2-n2c1nc1ccc(CN3CCOCC3)cc1c2=O [Embodiment Example 5, 8-fluoro-2-((morpholino-1-yl)methyl)indolo[2,1-b]quinazoline-6,12-dione]",T-Cell Proliferation Rate,T lymphocytes,50.27%
